The test system of data set [1] is IL-6 cytokine output from THP-1s. Briefly: THP-1 AlphaLISA IL-6 cytokine assay. It counts as cell-based, human. As to conditions: Homo sapiens; PMA-differentiated THP-1 cells, LPS 24 hr then Nigericin 1 hour. The gist of the method:
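PMA-differentiated (72 h) THP-1 cells pretreated 30 min with compound, LPS-stimulated 24 h, then nigericin 1 h at 37 °C. Supernatant IL-1β and IL-6 by AlphaLISA; % inhibition normalised to ±LPS controls, IC50 from concentration-response curves.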

Data set [2] is described as follows: Mouse pharmacokinetic study, intravenous dosing. As to conditions: male, C57BL/6, mouse, iv, plasma, 10 mg/kg i.v., read-out: Parent compound concentration following intravenous administration. Format: in vivo. The gist of the method: (§1)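 Male C57BL/6 mice (6-8 weeks, fed ad libitum); IV tail-vein 10 mg/kg in 10% DMSO/25% HP-β-CD, sampled 3 min–8 h; oral gavage 100 mg/kg in 5% DMSO/0.5% HPMC+0.1% Tween 80, sampled 5 min–24 h. N=3/time point, semi-serial facial-vein bleeds into K2EDTA; plasma levels by LC-MS/MS.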

The nature of data set [3]: Mouse pharmacokinetic study, oral administration. As to conditions: male, C57BL/6, mouse, plasma, po, 100 mg/kg, plasma, male C57BL/6 mice, oral gavage 100 mg/kg; for concentration at 0.083 h: read-out: Parent compound concentrations following oral administration, Time 0.083 h; for concentration at 0.25 h: read-out: Parent compound concentrations following oral administration, Time 0.25 h; for concentration at 0.5 h: read-out: Parent compound concentrations following oral administration, Time 0.5 h; for concentration at 1 h: read-out: Parent compound concentrations following oral administration, Time 1 h; for concentration at 2 h: read-out: Parent compound concentrations following oral administration, Time 2 h; for concentration at 4 h: read-out: Parent compound concentrations following oral administration, Time 4 h; for concentration at 6 h: read-out: Parent compound concentrations following oral administration, Time 6 h; for concentration at 8 h: read-out: Parent compound concentrations following oral administration, Time 8 h; for concentration at 24 h: read-out: Parent compound concentrations following oral administration, Time 24 h. It counts as in vivo. The gist of the method: as §1

Data set [4] is described as follows: Hepatocyte stability assay (mouse). As to conditions: cryopreserved hepatocytes, 10 μM compound, 0.5×10^6 cells/mL, 60 minutes, read-out: T½. Format: in vitro ADME. An outline of the steps: (§2)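 Cryopreserved hepatocytes (viability >70%), 0.5×10^6 cells/mL in Leibovitz buffer, incubated at 37 °C with 10 μM compound (0.1% DMSO), duplicates; buffer-only incubations as negative control. Samples at 0-60 min quenched in acetonitrile, parent measured by LC-MS/MS; half-life and Clint (μL min^−1 10^−6 cells) from ln % remaining versus time slope.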

The subject of a further data set is hepatocytes. Briefly: Hepatocyte stability assay (mouse). The following applies: 10 μM compound, 0.5×10^6 cells/mL, 60 minutes. It counts as in vitro ADME. An outline of the steps: as §2

In data set [1], `C=C(CC(=O)OC1CCCCCCC1)C(=O)OCCC(=O)O` [Example 82, 3-((4-(cyclooctyloxy)-2-methylene-4-oxobutanoyl)oxy)propanoic acid] displayed an IC50 of 18.9 µM. Besides, in data set [2], the concentration at 0.05 h worked out at 17600 ng/mL, the concentration at 0.133 h came to 8350 ng/mL, the concentration at 0.25 h amounted to 2780 ng/mL and the concentration at 0.5 h is 752 ng/mL. Besides, in data set [2], the concentration at 1 h was 69 ng/mL, the concentration at 2 h came to 2.2 ng/mL, the concentration at 4 h stood at 1.4 ng/mL and the concentration at 6 h turned out to be 1.6 ng/mL. Besides, the concentration at 8 h in data set [2] is less than 0.8 ng/mL. Moreover, in data set [3], the concentration at 0.083 h worked out at 27500 ng/mL, the concentration at 0.25 h stood at 18000 ng/mL, the concentration at 0.5 h was determined as 6450 ng/mL and the concentration at 1 h is 3400 ng/mL. For the same molecule, in data set [3], the concentration at 2 h was 1040 ng/mL, the concentration at 4 h stood at 568 ng/mL, the concentration at 6 h worked out at 112 ng/mL and the concentration at 8 h worked out at 86 ng/mL. For the same molecule, the concentration at 24 h in data set [3] is less than 0.8 ng/mL. In addition, the half-life at 10 μM in data set [4] was determined as 27 min. Besides, the “CIint (μL min^−1 10^−6 cells)” value in the data set with hepatocytes was determined as 52 μL min^−1 10^−6 cells.
As to `C=C(CC(=O)O[C@@H](C)CCCCCC)C(=O)OCCC(=O)O` [Example 84, (S)-3-((2-methylene-4-(octan-2-yloxy)-4-oxobutanoyl)oxy)propanoic acid], the midpoint of inhibition in data set [1], the IC50, lay at 22 µM. In data set [2], the concentration at 0.05 h is 5580 ng/mL, the concentration at 0.25 h turned out to be 1030 ng/mL, the concentration at 0.5 h is 217 ng/mL and the concentration at 1 h came out at 34 ng/mL. Besides, in data set [2], the concentration at 2 h was found to be 6.5 ng/mL, the concentration at 4 h was less than 2 ng/mL and the concentration at 6 h was less than 2 ng/mL. Besides, in data set [3], the concentration at 0.25 h is 9090 ng/mL, the concentration at 0.5 h was 5120 ng/mL, the concentration at 1 h was found to be 3310 ng/mL and the concentration at 2 h came out at 1000 ng/mL. In data set [3], the concentration at 4 h was 368 ng/mL, the concentration at 8 h is 217 ng/mL and the concentration at 24 h is less than 31 ng/mL. The half-life at 10 μM in data set [4] is 6 min. Moreover, the “CIint (μL min^−1 10^−6 cells)” value with hepatocytes worked out at 220 μL min^−1 10^−6 cells.
Consider `C=C(CC(=O)O[C@H](C)CCCCCC)C(=O)OCCC(=O)O` [Example 88, (R)-3-((2-methylene-4-(octan-2-yloxy)-4-oxobutanoyl)oxy)propanoic acid], for which the IC50 in data set [1] was determined as 20.4 µM. Further, in data set [2], the concentration at 0.05 h stood at 42500 ng/mL, the concentration at 0.133 h is 23500 ng/mL, the concentration at 0.25 h was 12400 ng/mL and the concentration at 0.5 h was 6250 ng/mL. Also, in data set [2], the concentration at 1 h came to 2510 ng/mL, the concentration at 2 h amounted to 200 ng/mL, the concentration at 4 h stood at 40 ng/mL and the concentration at 6 h was 11 ng/mL. The concentration at 8 h in data set [2] came to 4.2 ng/mL. Moreover, in data set [3], the concentration at 0.083 h was found to be 53900 ng/mL, the concentration at 0.25 h was determined as 43600 ng/mL, the concentration at 0.5 h is 33800 ng/mL and the concentration at 1 h was found to be 12700 ng/mL. In data set [3], the concentration at 2 h stood at 10500 ng/mL, the concentration at 4 h worked out at 4100 ng/mL, the concentration at 6 h came to 1950 ng/mL and the concentration at 8 h is 72 ng/mL. For the same molecule, in data set [3], the concentration at 24 h amounted to 5.5 ng/mL. In addition, the half-life at 10 μM in data set [4] came to 7 min. Besides, the “CIint (μL min^−1 10^−6 cells)” value with hepatocytes is 297 μL min^−1 10^−6 cells.
For `C=C(CC(=O)O[C@@H](C)CCCCCC)C(=O)OCC(=O)O` [Example 89, (S)-2-((2-methylene-4-(octan-2-yloxy)-4-oxobutanoyl)oxy)acetic acid], in data set [1], it took 12.6 µM to reach half-maximal inhibition (IC50). Moreover, in data set [2], the concentration at 0.05 h turned out to be 27800 ng/mL, the concentration at 0.133 h was 12400 ng/mL, the concentration at 0.25 h was 7680 ng/mL and the concentration at 0.5 h came out at 2300 ng/mL. In addition, in data set [2], the concentration at 1 h was 430 ng/mL, the concentration at 2 h was found to be 65 ng/mL, the concentration at 4 h is 6.8 ng/mL and the concentration at 6 h was less than 4 ng/mL. Moreover, the concentration at 8 h in data set [2] is less than 4 ng/mL. Also, in data set [3], the concentration at 0.083 h was 44000 ng/mL, the concentration at 0.25 h was 39100 ng/mL, the concentration at 0.5 h came out at 28500 ng/mL and the concentration at 1 h was 14000 ng/mL. In addition, in data set [3], the concentration at 2 h was 4740 ng/mL, the concentration at 4 h worked out at 918 ng/mL, the concentration at 6 h is 582 ng/mL and the concentration at 8 h stood at 16 ng/mL. The concentration at 24 h in data set [3] was found to be 6.8 ng/mL. The half-life at 10 μM in data set [4] amounted to 13 min. For the same molecule, in the data set with hepatocytes, the “CIint (μL min^−1 10^−6 cells)” value is 198 μL min^−1 10^−6 cells.
As for `C=C(CC(=O)OC1CCCCCCC1)C(=O)OCC(=O)O` [Example 90, 2-((4-(cyclooctyloxy)-2-methylene-4-oxobutanoyl)oxy)acetic acid], the half-inhibitory concentration (IC50) in data set [1] came to 9.8 µM. Further, in data set [2], the concentration at 0.05 h amounted to 19200 ng/mL, the concentration at 0.133 h is 7160 ng/mL, the concentration at 0.25 h is 2020 ng/mL and the concentration at 0.5 h amounted to 1600 ng/mL. For the same molecule, in data set [2], the concentration at 1 h turned out to be 89 ng/mL, the concentration at 2 h was 3.6 ng/mL, the concentration at 4 h came out at 2.8 ng/mL and the concentration at 6 h was 1.7 ng/mL. Moreover, the concentration at 8 h in data set [2] amounted to 1.2 ng/mL. In data set [3], the concentration at 0.083 h amounted to 22900 ng/mL, the concentration at 0.25 h amounted to 10600 ng/mL, the concentration at 0.5 h came to 6200 ng/mL and the concentration at 1 h turned out to be 3370 ng/mL. For the same molecule, in data set [3], the concentration at 2 h is 3470 ng/mL, the concentration at 4 h was determined as 1640 ng/mL, the concentration at 6 h was determined as 1050 ng/mL and the concentration at 8 h is 500 ng/mL. For the same molecule, in data set [3], the concentration at 24 h was 1.1 ng/mL. In addition, the half-life at 10 μM in data set [4] stood at 30 min. The “CIint (μL min^−1 10^−6 cells)” value with hepatocytes was 47 μL min^−1 10^−6 cells.
`C=C(CC(=O)OC1CCCCC1)C(=O)OCC(=O)O` [Example 91, 2-((4-(cyclohexyloxy)-2-methylene-4-oxobutanoyl)oxy)acetic acid]: the IC50 in data set [1] came out at 33.8 µM. Also, in data set [3], the concentration at 0.25 h is 8860 ng/mL, the concentration at 0.5 h is 6240 ng/mL, the concentration at 1 h was determined as 1920 ng/mL and the concentration at 2 h is 450 ng/mL. In addition, in data set [3], the concentration at 4 h was found to be 33 ng/mL, the concentration at 8 h was determined as 19 ng/mL and the concentration at 24 h worked out at 13 ng/mL. In data set [4], the half-life at 10 μM worked out at 48 min. Also, the “CIint (μL min^−1 10^−6 cells)” value with hepatocytes is 29 μL min^−1 10^−6 cells.
